Measurements taken from ChEMBL document CHEMBL5126592, “Design, synthesis and activity against drug-resistant bacteria evaluation of C-20, C-23 modified 5-O-mycaminosyltylonolide derivatives” (Eur J Med Chem, 2022).
In brackets after ≈: the same amount, converted by molar mass.

Legend:
Assay type in all cases: functional
Details in all cases: time 16-20 hrs
Staphylococcus aureus = assay: Antibacterial activity against Staphylococcus aureus ATCC 25923 incubated for 16 to 20 hrs by broth microdilution method
Cronobacter sakazakii = assay: Antibacterial activity against Cronobacter sakazakii ATCC 29544 incubated for 16 to 20 hrs by broth microdilution method
Klebsiella pneumoniae = assay: Antibacterial activity against Klebsiella pneumoniae ATCC 13883 incubated for 16 to 20 hrs by broth microdilution method
Escherichia coli = assay: Antibacterial activity against Escherichia coli ATCC 25922 incubated for 16 to 20 hrs by broth microdilution method

Compound	MIC (Staphylococcus aureus) [µg/mL]	MIC (Cronobacter sakazakii) [µg/mL]	MIC (Klebsiella pneumoniae) [µg/mL]	MIC (Escherichia coli) [µg/mL]
CC[C@H]1OC(=O)C[C@@H](O)[C@H](C)[C@@H](O[C@@H]2O[C@H](C)[C@@H](O)[C@H](N(C)C)[C@H]2O)[C@@H](CCN(Cc2ccc(OC)cc2)Cc2cn(-c3cnc4ccccc4c3)nn2)C[C@@H](C)C(=O)/C=C/C(C)=C/[C@@H]1CI	2 (≈ 1.93 µM)	32 (≈ 30.9 µM)	32 (≈ 30.9 µM)	16 (≈ 15.4 µM)
CC[C@H]1OC(=O)C[C@@H](O)[C@H](C)[C@@H](O[C@@H]2O[C@H](C)[C@@H](O)[C@H](N(C)C)[C@H]2O)[C@@H](CCN(Cc2cccnc2)Cc2cn(-c3cnc4ccccc4c3)nn2)C[C@@H](C)C(=O)/C=C/C(C)=C/[C@@H]1CO	0.5 (≈ 0.557 µM)	32 (≈ 35.6 µM)	32 (≈ 35.6 µM)	32 (≈ 35.6 µM)
CC[C@H]1OC(=O)C[C@@H](O)[C@H](C)[C@@H](O[C@@H]2O[C@H](C)[C@@H](O)[C@H](N(C)C)[C@H]2O)[C@@H](CCN(C)Cc2cn(-c3cnc4ccccc4c3)nn2)C[C@@H](C)C(=O)/C=C/C(C)=C/[C@@H]1CN(C)C(C)C	0.5 (≈ 0.571 µM)	16 (≈ 18.3 µM)	8 (≈ 9.13 µM)	8 (≈ 9.13 µM)
CC[C@H]1OC(=O)C[C@@H](O)[C@H](C)[C@@H](O[C@@H]2O[C@H](C)[C@@H](O)[C@H](N(C)C)[C@H]2O)[C@@H](CCN(Cc2cn(-c3cnc4ccccc4c3)nn2)Cc2ccco2)C[C@@H](C)C(=O)/C=C/C(C)=C/[C@@H]1CN1CCCCCC1	1 (≈ 1.03 µM)	8 (≈ 8.26 µM)	4 (≈ 4.13 µM)	4 (≈ 4.13 µM)
CC[C@H]1OC(=O)C[C@@H](O)[C@H](C)[C@@H](O[C@@H]2O[C@H](C)[C@@H](O)[C@H](N(C)C)[C@H]2O)[C@@H](CCN(Cc2ccc(C(F)(F)F)cc2)Cc2cn(-c3cnc4ccccc4c3)nn2)C[C@@H](C)C(=O)/C=C/C(C)=C/[C@@H]1CN1CCC(O)CC1	2 (≈ 1.91 µM)	32 (≈ 30.5 µM)	32 (≈ 30.5 µM)	16 (≈ 15.3 µM)
CC[C@H]1OC(=O)C[C@@H](O)[C@H](C)[C@@H](O[C@@H]2O[C@H](C)[C@@H](O)[C@H](N(C)C)[C@H]2O)[C@@H](CCN(Cc2cn(-c3cnc4ccccc4c3)nn2)Cc2ccco2)C[C@@H](C)C(=O)/C=C/C(C)=C/[C@@H]1CN1CC(C)CC(C)C1 (stereo partly drawn)	2 (≈ 2.04 µM)	16 (≈ 16.3 µM)	16 (≈ 16.3 µM)	16 (≈ 16.3 µM)
CC[C@H]1OC(=O)C[C@@H](O)[C@H](C)[C@@H](O[C@@H]2O[C@H](C)[C@@H](O)[C@H](N(C)C)[C@H]2O)[C@@H](CCN(Cc2ccc(N(C)C)cc2)Cc2cn(-c3cnc4ccccc4c3)nn2)C[C@@H](C)C(=O)/C=C/C(C)=C/[C@@H]1CN1CCCCC1	0.5 (≈ 0.496 µM)	8 (≈ 7.94 µM)	8 (≈ 7.94 µM)	4 (≈ 3.97 µM)
CC[C@H]1OC(=O)C[C@@H](O)[C@H](C)[C@@H](O[C@@H]2O[C@H](C)[C@@H](O)[C@H](N(C)C)[C@H]2O)[C@@H](CCN(Cc2ccc(OC)cc2)Cc2cn(-c3cnc4ccccc4c3)nn2)C[C@@H](C)C(=O)/C=C/C(C)=C/[C@@H]1CN1CCCCCCC1	1 (≈ 0.978 µM)	16 (≈ 15.7 µM)	16 (≈ 15.7 µM)	4 (≈ 3.91 µM)
CC[C@H]1OC(=O)C[C@@H](O)[C@H](C)[C@@H](O[C@@H]2O[C@H](C)[C@@H](O)[C@H](N(C)C)[C@H]2O)[C@@H](CCN(Cc2ccc(N(C)C)cc2)Cc2cn(-c3cnc4ccccc4c3)nn2)C[C@@H](C)C(=O)/C=C/C(C)=C/[C@@H]1CN1CCCCCC1	1 (≈ 0.979 µM)	8 (≈ 7.83 µM)	4 (≈ 3.92 µM)	4 (≈ 3.92 µM)
CC[C@H]1OC(=O)C[C@@H](O)[C@H](C)[C@@H](O[C@@H]2O[C@H](C)[C@@H](O)[C@H](N(C)C)[C@H]2O)[C@@H](CCN(Cc2ccc(OC)cc2)Cc2cn(-c3cnc4ccccc4c3)nn2)C[C@@H](C)C(=O)/C=C/C(C)=C/[C@@H]1CN1CCC(O)CC1	2 (≈ 1.98 µM)	32 (≈ 31.7 µM)	8 (≈ 7.92 µM)	8 (≈ 7.92 µM)
CC[C@H]1OC(=O)C[C@@H](O)[C@H](C)[C@@H](O[C@@H]2O[C@H](C)[C@@H](O)[C@H](N(C)C)[C@H]2O)[C@@H](CCN(Cc2ccc(N(C)C)cc2)Cc2cn(-c3cnc4ccccc4c3)nn2)C[C@@H](C)C(=O)/C=C/C(C)=C/[C@@H]1CN1CCCCCCC1	0.5 (≈ 0.483 µM)	32 (≈ 30.9 µM)	16 (≈ 15.5 µM)	8 (≈ 7.73 µM)
CC[C@H]1OC(=O)C[C@@H](O)[C@H](C)[C@@H](O[C@@H]2O[C@H](C)[C@@H](O)[C@H](N(C)C)[C@H]2O)[C@@H](CCN(Cc2ccccc2)Cc2cn(-c3cnc4ccccc4c3)nn2)C[C@@H](C)C(=O)/C=C/C(C)=C/[C@@H]1CI	2 (≈ 1.99 µM)	32 (≈ 31.8 µM)	32 (≈ 31.8 µM)	32 (≈ 31.8 µM)
CC[C@H]1OC(=O)C[C@@H](O)[C@H](C)[C@@H](O[C@@H]2O[C@H](C)[C@@H](O)[C@H](N(C)C)[C@H]2O)[C@@H](CCN(Cc2cn(-c3cnc4ccccc4c3)nn2)Cc2ccc(CO)o2)C[C@@H](C)C(=O)/C=C/C(C)=C/[C@@H]1CO	0.5 (≈ 0.545 µM)	32 (≈ 34.9 µM)	32 (≈ 34.9 µM)	32 (≈ 34.9 µM)
CC[C@H]1OC(=O)C[C@@H](O)[C@H](C)[C@@H](O[C@@H]2O[C@H](C)[C@@H](O)[C@H](N(C)C)[C@H]2O)[C@@H](CCN(Cc2cn(-c3cnc4ccccc4c3)nn2)Cc2ccco2)C[C@@H](C)C(=O)/C=C/C(C)=C/[C@@H]1CN1CCC(O)CC1	4 (≈ 4.12 µM)	16 (≈ 16.5 µM)	16 (≈ 16.5 µM)	8 (≈ 8.25 µM)
CC[C@H]1OC(=O)C[C@@H](O)[C@H](C)[C@@H](O[C@@H]2O[C@H](C)[C@@H](O)[C@H](N(C)C)[C@H]2O)[C@@H](CCN(Cc2cn(-c3cnc4ccccc4c3)nn2)Cc2cncs2)C[C@@H](C)C(=O)/C=C/C(C)=C/[C@@H]1CO	0.5 (≈ 0.553 µM)	32 (≈ 35.4 µM)	32 (≈ 35.4 µM)	32 (≈ 35.4 µM)
CC[C@H]1OC(=O)C[C@@H](O)[C@H](C)[C@@H](O[C@@H]2O[C@H](C)[C@@H](O)[C@H](N(C)C)[C@H]2O)[C@@H](CCN(Cc2ccc(C(F)(F)F)cc2)Cc2cn(-c3cnc4ccccc4c3)nn2)C[C@@H](C)C(=O)/C=C/C(C)=C/[C@@H]1CN1CCCCCCC1	1 (≈ 0.943 µM)	32 (≈ 30.2 µM)	8 (≈ 7.54 µM)	4 (≈ 3.77 µM)
CC[C@H]1OC(=O)C[C@@H](O)[C@H](C)[C@@H](O[C@@H]2O[C@H](C)[C@@H](O)[C@H](N(C)C)[C@H]2O)[C@@H](CCN(Cc2ccccc2)Cc2cn(-c3cnc4ccccc4c3)nn2)C[C@@H](C)C(=O)/C=C/C(C)=C/[C@@H]1CN1CCCCCC1	1 (≈ 1.02 µM)	8 (≈ 8.18 µM)	4 (≈ 4.09 µM)	4 (≈ 4.09 µM)
CC[C@H]1OC(=O)C[C@@H](O)[C@H](C)[C@@H](O[C@@H]2O[C@H](C)[C@@H](O)[C@H](N(C)C)[C@H]2O)[C@@H](CCN(Cc2ccc(Br)cc2)Cc2cn(-c3cnc4ccccc4c3)nn2)C[C@@H](C)C(=O)/C=C/C(C)=C/[C@@H]1CO	0.125 (≈ 0.128 µM)	32 (≈ 32.8 µM)	32 (≈ 32.8 µM)	8 (≈ 8.2 µM)
CC[C@H]1OC(=O)C[C@@H](O)[C@H](C)[C@@H](O[C@@H]2O[C@H](C)[C@@H](O)[C@H](N(C)C)[C@H]2O)[C@@H](CCN(C)Cc2cn(-c3cnc4ccccc4c3)nn2)C[C@@H](C)C(=O)/C=C/C(C)=C/[C@@H]1CN1CC(C)CC(C)C1 (stereo partly drawn)	2 (≈ 2.18 µM)	16 (≈ 17.5 µM)	8 (≈ 8.73 µM)	8 (≈ 8.73 µM)
CC[C@H]1OC(=O)C[C@@H](O)[C@H](C)[C@@H](O[C@@H]2O[C@H](C)[C@@H](O)[C@H](N(C)C)[C@H]2O)[C@@H](CCN(Cc2ccccc2)Cc2cn(-c3cnc4ccccc4c3)nn2)C[C@@H](C)C(=O)/C=C/C(C)=C/[C@@H]1CN1CCCCCCC1	1 (≈ 1.01 µM)	16 (≈ 16.1 µM)	8 (≈ 8.06 µM)	8 (≈ 8.06 µM)
CCCCN(CCCC)C[C@H]1/C=C(C)/C=C/C(=O)[C@H](C)C[C@H](CCN(Cc2ccc(Br)cc2)Cc2cn(-c3cnc4ccccc4c3)nn2)[C@H](O[C@@H]2O[C@H](C)[C@@H](O)[C@H](N(C)C)[C@H]2O)[C@@H](C)[C@H](O)CC(=O)O[C@@H]1CC	1 (≈ 0.92 µM)	16 (≈ 14.7 µM)	16 (≈ 14.7 µM)	8 (≈ 7.36 µM)
CC[C@H]1OC(=O)C[C@@H](O)[C@H](C)[C@@H](O[C@@H]2O[C@H](C)[C@@H](O)[C@H](N(C)C)[C@H]2O)[C@@H](CCN(Cc2ccc(OC)cc2)Cc2cn(-c3cnc4ccccc4c3)nn2)C[C@@H](C)C(=O)/C=C/C(C)=C/[C@@H]1CN1CCCCCC1	0.5 (≈ 0.496 µM)	32 (≈ 31.7 µM)	4 (≈ 3.97 µM)	8 (≈ 7.93 µM)
CCCN(CCC)C[C@H]1/C=C(C)/C=C/C(=O)[C@H](C)C[C@H](CCN(Cc2ccc(Br)cc2)Cc2cn(-c3cnc4ccccc4c3)nn2)[C@H](O[C@@H]2O[C@H](C)[C@@H](O)[C@H](N(C)C)[C@H]2O)[C@@H](C)[C@H](O)CC(=O)O[C@@H]1CC	1 (≈ 0.944 µM)	8 (≈ 7.55 µM)	8 (≈ 7.55 µM)	8 (≈ 7.55 µM)
CC[C@H]1OC(=O)C[C@@H](O)[C@H](C)[C@@H](O[C@@H]2O[C@H](C)[C@@H](O)[C@H](N(C)C)[C@H]2O)[C@@H](CCN(Cc2ccc(N(C)C)cc2)Cc2cn(-c3cnc4ccccc4c3)nn2)C[C@@H](C)C(=O)/C=C/C(C)=C/[C@@H]1CO	0.25 (≈ 0.266 µM)	16 (≈ 17 µM)	16 (≈ 17 µM)	8 (≈ 8.51 µM)
CC[C@H]1OC(=O)C[C@@H](O)[C@H](C)[C@@H](O[C@@H]2O[C@H](C)[C@@H](O)[C@H](N(C)C)[C@H]2O)[C@@H](CCN(Cc2ccsc2)Cc2cn(-c3cnc4ccccc4c3)nn2)C[C@@H](C)C(=O)/C=C/C(C)=C/[C@@H]1CO	0.25 (≈ 0.277 µM)	32 (≈ 35.4 µM)	16 (≈ 17.7 µM)	16 (≈ 17.7 µM)
CC[C@H]1OC(=O)C[C@@H](O)[C@H](C)[C@@H](O[C@@H]2O[C@H](C)[C@@H](O)[C@H](N(C)C)[C@H]2O)[C@@H](CCN(Cc2ccncc2)Cc2cn(-c3cnc4ccccc4c3)nn2)C[C@@H](C)C(=O)/C=C/C(C)=C/[C@@H]1CO	0.125 (≈ 0.139 µM)	32 (≈ 35.6 µM)	32 (≈ 35.6 µM)	32 (≈ 35.6 µM)
CCc1ccc(CN(CC[C@H]2C[C@@H](C)C(=O)/C=C/C(C)=C/[C@H](CO)[C@@H](CC)OC(=O)C[C@@H](O)[C@H](C)[C@H]2O[C@@H]2O[C@H](C)[C@@H](O)[C@H](N(C)C)[C@H]2O)Cc2cn(-c3cnc4ccccc4c3)nn2)cc1	0.5 (≈ 0.54 µM)	16 (≈ 17.3 µM)	16 (≈ 17.3 µM)	32 (≈ 34.6 µM)
